# Legend:
# Test in all cases: Caspase Inhibition Assay
# [1] = target: T1, Caspase-1 (Homo sapiens, UniProt P29466)
# T1 sequence (P29466 whole entry): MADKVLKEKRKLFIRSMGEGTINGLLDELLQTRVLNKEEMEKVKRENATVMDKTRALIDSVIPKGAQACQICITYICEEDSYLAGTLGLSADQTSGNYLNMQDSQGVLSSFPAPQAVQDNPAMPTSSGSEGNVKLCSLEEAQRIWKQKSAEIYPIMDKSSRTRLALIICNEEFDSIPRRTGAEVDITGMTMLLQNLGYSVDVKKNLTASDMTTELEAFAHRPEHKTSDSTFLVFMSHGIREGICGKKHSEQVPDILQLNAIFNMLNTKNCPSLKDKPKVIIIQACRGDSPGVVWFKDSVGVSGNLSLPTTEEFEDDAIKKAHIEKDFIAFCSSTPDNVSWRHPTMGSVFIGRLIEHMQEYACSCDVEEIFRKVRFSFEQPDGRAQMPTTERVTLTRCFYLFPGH
# Description: (§1) The substrate peptides terminating in AMC are processed by caspases with or without inhibitors, and the accumulation of AMC was assessed with a Cytofluor fluorescent plate reader at excitation and emission wavelengths of 380 and 460 nm. Compounds were tested, and full IC50 curves were run for all compounds expressing measurable inhibitory activity.
# [2] = target: T2, Caspase-7 (Homo sapiens, UniProt P55210)
# T2 sequence (P55210 whole entry): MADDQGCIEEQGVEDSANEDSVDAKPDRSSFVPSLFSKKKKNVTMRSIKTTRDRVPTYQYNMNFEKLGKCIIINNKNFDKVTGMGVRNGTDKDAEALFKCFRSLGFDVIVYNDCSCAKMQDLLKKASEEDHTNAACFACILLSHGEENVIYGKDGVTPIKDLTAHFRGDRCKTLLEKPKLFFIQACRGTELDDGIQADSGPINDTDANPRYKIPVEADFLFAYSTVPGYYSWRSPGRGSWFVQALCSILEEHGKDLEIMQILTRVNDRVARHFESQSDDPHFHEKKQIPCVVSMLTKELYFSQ
# Description: as §1
# [3] = target: T3, Caspase-3 (Homo sapiens, UniProt P42574)
# T3 sequence (P42574 whole entry): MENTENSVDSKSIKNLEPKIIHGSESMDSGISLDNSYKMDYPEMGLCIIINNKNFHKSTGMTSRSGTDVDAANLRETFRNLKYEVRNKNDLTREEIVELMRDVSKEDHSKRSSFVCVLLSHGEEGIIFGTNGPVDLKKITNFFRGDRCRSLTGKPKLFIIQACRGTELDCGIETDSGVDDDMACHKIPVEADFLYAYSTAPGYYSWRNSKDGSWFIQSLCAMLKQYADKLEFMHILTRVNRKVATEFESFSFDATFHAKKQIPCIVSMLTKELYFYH
# Description: as §1
# [4] = target: Caspase-8 (Homo sapiens, UniProt Q14790)
# Description: as §1
# Caspase-8, sequence (Q14790 217-374 limits assumed): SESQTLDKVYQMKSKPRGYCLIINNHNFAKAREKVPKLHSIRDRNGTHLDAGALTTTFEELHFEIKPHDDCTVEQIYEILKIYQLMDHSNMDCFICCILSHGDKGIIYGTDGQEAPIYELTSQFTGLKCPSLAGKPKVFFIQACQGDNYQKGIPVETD
# Caspase-8, sequence (Q14790 385-479 limits assumed): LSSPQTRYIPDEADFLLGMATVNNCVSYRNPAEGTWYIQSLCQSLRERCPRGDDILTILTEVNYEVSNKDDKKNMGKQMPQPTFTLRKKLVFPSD
IC50 [1] [µM],IC50 [2] [nM],IC50 [3] [nM],IC50 [4] [nM],"IC50 ([3]; pH 7, 37 °C) [nM]",SMILES
4.49,545,29,975,,"COc1ccc(OC)c(C(O)C(=O)N[C@H](C(=O)N[C@@H](CC(=O)O)C(=O)CSCc2ccccc2)C(C)C)c1 (stereo partly drawn) [(3S)-5-(benzylsulfanyl)-3-[(2S)-2-[2-(2,5-dimethoxyphenyl)-2-hydroxyacetamido]-3-methylbutanamido]-4-oxopentanoic acid]"
5.81,4200,,5830,181,COc1ccc(Br)cc1[C@H](Cc1ccccc1)C(=O)N[C@H](C(=O)N[C@@H](CC(=O)O)C(=O)CSCc1ccccc1)C(C)C [(3S)-5-(benzylsulfanyl)-3-[(2S)-2-[(2S)-2-(5-bromo-2-methoxyphenyl)-3-phenylpropanamido]-3-methylbutanamido]-4-oxopentanoic acid]
1.54,91,5,104,,COc1ccc(Br)cc1C(O)C(=O)N[C@H](C(=O)N[C@@H](CC(=O)O)C(=O)CSCc1ccccc1)C(C)C (stereo partly drawn) [(3S)-5-(benzylsulfanyl)-3-[(2S)-2-[2-(5-bromo-2-methoxyphenyl)-2-hydroxyacetamido]-3-methylbutanamido]-4-oxopentanoic acid]
> 10,> 10000,,> 10000,323,COc1ccc(Br)cc1C1(C(=O)N[C@H](C(=O)N[C@@H](CC(=O)O)C(=O)CSCc2ccccc2)C(C)C)CC1 [(3S)-5-(benzylsulfanyl)-3-[(2S)-2-{[1-(5-bromo-2-methoxyphenyl)cyclopropyl]formamido}-3-methylbutanamido]-4-oxopentanoic acid]
> 10,3690,,5380,176,COc1ccc(Br)cc1[C@H](C)C(=O)N[C@H](C(=O)N[C@@H](CC(=O)O)C(=O)CSCc1ccccc1)C(C)C [(3S)-5-(benzylsulfanyl)-3-[(2S)-2-[(2S)-2-(5-bromo-2-methoxyphenyl)propanamido]-3-methylbutanamido]-4-oxopentanoic acid]
4.85,290,16,635,,COc1ccc(C(C)=O)cc1C(O)C(=O)N[C@H](C(=O)N[C@@H](CC(=O)O)C(=O)CSCc1ccccc1)C(C)C (stereo partly drawn) [(3S)-5-(benzylsulfanyl)-3-[(2S)-2-[2-(5-acetyl-2-methoxyphenyl)-2-hydroxyacetamido]-3-methylbutanamido]-4-oxopentanoic acid]
> 10,5300,,4500,274,CCC[C@H](C(=O)N[C@H](C(=O)N[C@@H](CC(=O)O)C(=O)CSCc1ccccc1)C(C)C)c1cc(Br)ccc1OC [(3S)-5-(benzylsulfanyl)-3-[(2S)-2-[(2S)-2-(5-bromo-2-methoxyphenyl)pentanamido]-3-methylbutanamido]-4-oxopentanoic acid]
2.46,63,12,280,,"COc1ccc(-c2nc(C)no2)cc1C(O)C(=O)N[C@H](C(=O)N[C@@H](CC(=O)O)C(=O)CSCc1ccccc1)C(C)C (stereo partly drawn) [(3S)-5-(benzylsulfanyl)-3-[(2S)-2-{2-hydroxy-2-[2-methoxy-5-(3-methyl-1,2,4-oxadiazol-5-yl)phenyl]acetamido}-3-methylbutanamido]-4-oxopentanoic acid]"
6.51,2210,,1620,80,C=CC[C@H](C(=O)N[C@H](C(=O)N[C@@H](CC(=O)O)C(=O)CSCc1ccccc1)C(C)C)c1cc(Br)ccc1OC [(3S)-5-(benzylsulfanyl)-3-[(2S)-2-[(2S)-2-(5-bromo-2-methoxyphenyl)pent-4-enamido]-3-methylbutanamido]-4-oxopentanoic acid]
> 10,> 10000,,1320,9440,COc1ccc(Br)cc1[C@@H](C(=O)N[C@H](C(=O)N[C@@H](CC(=O)O)C(=O)CSCc1ccccc1)C(C)C)C(C)C [(3S)-5-(benzylsulfanyl)-3-[(2S)-2-[(2S)-2-(5-bromo-2-methoxyphenyl)-3-methylbutanamido]-3-methylbutanamido]-4-oxopentanoic acid]
0.675,135,16,98,,COc1ccc(I)cc1C(O)C(=O)N[C@H](C(=O)N[C@@H](CC(=O)O)C(=O)CSCc1ccccc1)C(C)C (stereo partly drawn) [(3S)-5-(benzylsulfanyl)-3-[(2S)-2-[2-hydroxy-2-(5-iodo-2-methoxyphenyl)acetamido]-3-methylbutanamido]-4-oxopentanoic acid]

SMILES,IC50 [1] [µM],IC50 [2] [nM],IC50 [3] [nM],IC50 [4] [nM],"IC50 ([3]; pH 7, 37 °C) [nM]"
C#CC[C@H](C(=O)N[C@H](C(=O)N[C@@H](CC(=O)O)C(=O)CSCc1ccccc1)C(C)C)c1cc(Br)ccc1OC [(3S)-5-(benzylsulfanyl)-3-[(2S)-2-[(2S)-2-(5-bromo-2-methoxyphenyl)pent-4-ynamido]-3-methylbutanamido]-4-oxopentanoic acid],> 10,3620,,4470,341

# — BindingDB's records for doi:10.1016/j.bmcl.2005.05.116 (Merck Frosst Canada, 2005)
